Test results published in PMC6422167 (ChemMedChem, 2018).
Like-named read-outs stand apart in the source and are kept apart here.

Assays:
σ1 receptor [1] = molecular target: T1, σ1 receptor (Cavia porcellus, UniProt Q60492); assay: σ1 receptor binding affinity, competition against; set-up: species or system guinea pig; conditions: for Selectivity ratio VAChT/ σ1: ratio of Ki values, Table 2; for Ki: read-out: Ki σ1, homogenate of guinea pig brain, tested as oxalate, mean ± SD
σ2 receptor [2] = molecular target: T2, σ2 receptor (Rattus norvegicus, UniProt Q5U3Y7); assay: σ2 receptor binding affinity, competition against [3H]DTG; conditions: for Selectivity ratio VAChT/ σ2: ratio of Ki values, Table 2; for Ki: read-out: Ki σ2, homogenate of rat liver, tested as oxalate, mean ± SD
T2 sequence (Q5U3Y7 1-176): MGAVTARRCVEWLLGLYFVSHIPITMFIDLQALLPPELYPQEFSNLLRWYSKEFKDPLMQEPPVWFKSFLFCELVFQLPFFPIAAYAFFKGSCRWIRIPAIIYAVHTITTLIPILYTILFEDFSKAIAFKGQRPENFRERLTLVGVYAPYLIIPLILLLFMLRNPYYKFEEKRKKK

σ1 receptor [3] = molecular target: T1, σ1 receptor; conditions: read-out: Ki σ1, cited from earlier work
human VAChT = molecular target: T3, human VAChT (Homo sapiens, UniProt Q16572); conditions: read-out: Ki VAChT; reference ligand; cited from earlier work
T3 sequence (Q16572 1-532): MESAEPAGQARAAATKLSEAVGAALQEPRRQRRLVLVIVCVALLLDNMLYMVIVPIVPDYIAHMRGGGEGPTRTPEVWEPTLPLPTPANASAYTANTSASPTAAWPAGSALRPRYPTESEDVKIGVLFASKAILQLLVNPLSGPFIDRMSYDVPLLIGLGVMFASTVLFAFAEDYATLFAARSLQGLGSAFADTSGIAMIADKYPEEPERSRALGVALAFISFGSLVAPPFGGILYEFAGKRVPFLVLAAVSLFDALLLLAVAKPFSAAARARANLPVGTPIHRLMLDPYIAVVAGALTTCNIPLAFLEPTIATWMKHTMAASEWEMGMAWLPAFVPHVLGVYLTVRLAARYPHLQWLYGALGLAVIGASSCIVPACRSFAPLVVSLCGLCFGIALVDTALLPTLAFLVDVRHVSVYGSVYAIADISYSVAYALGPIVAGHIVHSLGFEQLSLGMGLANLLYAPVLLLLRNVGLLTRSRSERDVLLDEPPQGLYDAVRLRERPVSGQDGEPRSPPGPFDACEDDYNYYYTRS

σ2 receptor [4] = molecular target: T2, σ2 receptor; conditions: read-out: Ki σ2; reference σ1 ligand; cited from earlier work

T1 sequence (Q60492 whole entry): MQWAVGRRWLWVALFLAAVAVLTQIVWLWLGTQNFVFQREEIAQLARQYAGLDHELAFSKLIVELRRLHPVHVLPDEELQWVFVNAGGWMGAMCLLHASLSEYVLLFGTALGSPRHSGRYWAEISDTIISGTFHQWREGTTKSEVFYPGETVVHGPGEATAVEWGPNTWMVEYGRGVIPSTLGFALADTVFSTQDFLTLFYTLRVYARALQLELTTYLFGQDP

Compound	Selectivity ratio VAChT/ σ1 (σ1 receptor [1])	Ki (σ1 receptor [1])	Selectivity ratio VAChT/ σ2 (σ2 receptor [2])	Ki (σ2 receptor [2])	Ki (σ1 receptor [3]; reference ligand)	Ki (human VAChT)	Ki (σ2 receptor [4])	Ki (σ1 receptor [3]; reference σ1 ligand)
O[C@@H]1Cc2cccc(OCCF)c2C[C@H]1N1CCC(c2ccccc2)CC1 [(-)-FEOBV]	10.7				209 ± 94 nM	19.6 ± 1.1 nM		
(-)-vesamicol [reference compound]				34.5 ± 2 nM				
O=C(Cc1ccccc1F)NC1CCC(Cc2ccccc2)CC1 (centres unmarked) [YUN-122, N-(4-benzylcyclohexyl)-2-(2-fluorophenyl)acetamide]							667 ± 98 nM	3.6 ± 1.1 nM
O=C(c1ccc(SCCCF)cc1)C1CCN(C2Cc3ccccc3CC2O)CC1 (racemic) [(±)-14b, (±)-(4-((3-Fluoropropyl)thio)phenyl)(1-(3-hydroxy-1,2,3,4-tetrahydronaph-thalen-2-yl)piperidin-4-yl)methanone]	17.7	40.8 ± 4.1 nM	> 430	> 1000 nM				

Second part, led by results:

Selectivity ratio VAChT/ σ1 (σ1 receptor [1])	Ki (σ1 receptor [1])	Selectivity ratio VAChT/ σ2 (σ2 receptor [2])	Ki (σ2 receptor [2])	Compound	Ki (σ1 receptor [3]; reference ligand)	Ki (human VAChT)	Ki (σ2 receptor [4])	Ki (σ1 receptor [3]; reference σ1 ligand)
7.2	17.2 ± 4 nM	> 420	> 1000 nM	CSc1ccc(C(=O)C2CCN(C3Cc4ccccc4CC3O)CC2)cc1 (racemic) [(±)-8, (±)-(1-(3-Hydroxy-1,2,3,4-tetrahydronaphthalen-2-yl)piperidin-4-yl)(4-(methylthio)phenyl)methanone]				
3.1	16.5 ± 2.1 nM	> 185	> 1000 nM	CS(=O)(=O)c1ccc(C(=O)C2CCN(C3Cc4ccccc4CC3O)CC2)cc1 (racemic) [(±)-7, (±)-(1-(3-Hydroxy-1,2,3,4-tetrahydronaphthalen-2-yl)piperidin-4-yl)(4-(methyl-sulfonyl)phenyl)methanone]				
7.0		> 420		O=C(c1ccc(SCCF)cc1)C1CCN(C2Cc3ccccc3CC2O)CC1 (racemic) [(±)-14a, (±)-(4-((2-Fluoroethyl)thio)phenyl)(1-(3-hydroxy-1,2,3,4-tetrahydronaph-thalen-2-yl)piperidin-4-yl)methanone]				
